{"source": "patent US6166290A", "about": "“Glutathione-S-conjugate transport in plants” (The Trustees of the University of Pennsylvania, priority 1997, dated 2000)", "key": {"[1]": {"target": "T1, YCF1 (vacuolar membrane vesicles purified from DTY165 cells) (Saccharomyces cerevisiae, UniProt P39109)", "T1 construct": "endogenous in cells; host or cells: S. cerevisiae DTY165 (wild type YCF1), vacuolar membrane vesicles", "T1 sequence (P39109 whole entry)": "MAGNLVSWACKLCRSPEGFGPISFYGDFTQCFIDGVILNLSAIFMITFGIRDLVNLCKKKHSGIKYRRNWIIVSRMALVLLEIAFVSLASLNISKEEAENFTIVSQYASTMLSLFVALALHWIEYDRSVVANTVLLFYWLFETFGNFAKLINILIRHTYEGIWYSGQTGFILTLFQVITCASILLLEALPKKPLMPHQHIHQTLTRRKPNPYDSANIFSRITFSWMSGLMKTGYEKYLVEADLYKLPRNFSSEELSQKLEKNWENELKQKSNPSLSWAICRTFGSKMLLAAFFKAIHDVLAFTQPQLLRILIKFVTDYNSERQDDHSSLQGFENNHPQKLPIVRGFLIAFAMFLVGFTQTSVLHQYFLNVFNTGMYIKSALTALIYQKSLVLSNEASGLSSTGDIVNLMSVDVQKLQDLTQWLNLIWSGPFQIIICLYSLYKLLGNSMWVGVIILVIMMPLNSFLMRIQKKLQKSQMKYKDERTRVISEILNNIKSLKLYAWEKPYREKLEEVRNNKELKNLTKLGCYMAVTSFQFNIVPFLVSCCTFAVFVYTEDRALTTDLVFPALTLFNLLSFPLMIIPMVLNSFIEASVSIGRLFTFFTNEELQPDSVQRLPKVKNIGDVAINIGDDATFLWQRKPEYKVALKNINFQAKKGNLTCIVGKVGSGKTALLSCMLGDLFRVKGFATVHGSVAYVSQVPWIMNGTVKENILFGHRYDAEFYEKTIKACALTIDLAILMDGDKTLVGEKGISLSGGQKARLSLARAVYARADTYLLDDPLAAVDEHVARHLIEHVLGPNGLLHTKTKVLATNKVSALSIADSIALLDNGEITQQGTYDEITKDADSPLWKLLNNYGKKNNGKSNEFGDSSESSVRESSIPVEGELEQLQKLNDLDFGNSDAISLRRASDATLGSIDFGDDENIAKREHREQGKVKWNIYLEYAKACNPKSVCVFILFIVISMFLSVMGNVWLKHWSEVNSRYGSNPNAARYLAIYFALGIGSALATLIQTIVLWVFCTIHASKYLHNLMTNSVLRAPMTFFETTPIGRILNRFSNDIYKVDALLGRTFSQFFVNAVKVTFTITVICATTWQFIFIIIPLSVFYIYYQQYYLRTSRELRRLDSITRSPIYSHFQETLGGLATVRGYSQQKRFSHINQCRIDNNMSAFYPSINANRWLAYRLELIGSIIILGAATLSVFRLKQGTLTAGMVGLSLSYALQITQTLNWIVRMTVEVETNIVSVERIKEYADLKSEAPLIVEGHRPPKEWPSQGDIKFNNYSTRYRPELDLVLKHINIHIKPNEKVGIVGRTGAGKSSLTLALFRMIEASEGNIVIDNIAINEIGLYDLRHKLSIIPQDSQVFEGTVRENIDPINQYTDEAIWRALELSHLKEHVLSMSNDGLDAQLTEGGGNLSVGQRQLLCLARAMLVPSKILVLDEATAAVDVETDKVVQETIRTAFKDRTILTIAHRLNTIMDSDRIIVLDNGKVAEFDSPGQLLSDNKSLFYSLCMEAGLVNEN", "assay": "biochemical", "assay_type": "biochemical", "settings": "read-out: Ki(DNP-GS) for inhibition of Cd.GS2 uptake", "how_it_was_run": "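Vacuolar vesicles from wild-type (DTY165) or ycf1Δ (DTY167) yeast, washed free of DTT/EGTA into glycerol/Tris-Mes pH 8.0. MgATP-energized, uncoupler-insensitive uptake of 109Cd2+, GSH or purified radiolabeled Cd·GSn complexes measured at 25°C. Medium: 3 mM ATP/MgSO4, ATP-regenerating system, 5 μM gramicidin-D, Tris-Mes pH 8.0; washes contained 100 μM CdSO4.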"}, "[2]": {"system": "endogenous GS-X pump of plant vacuolar membranes", "settings": "read-out: Km for transport by endogenous plant vacuolar GS-X pump; cited from earlier work"}, "[3]": {"system": "vacuolar GS-X pump (vacuolar membrane vesicles, V. radiata hypocotyls)", "assay": "GS-conjugate uptake by vacuolar membrane vesicles from etiolated hypocotyls of V. radiata", "assay_type": "biochemical, Vigna radiata"}, "[4]": {"system": "vacuolar GS-X pump (vacuolar membrane vesicles, Z. mays roots)", "assay": "GS-conjugate uptake by vacuolar membrane vesicles from roots of Z. mays", "assay_type": "biochemical, Zea mays"}, "[5]": {"system": "vacuolar GS-X pump (vacuolar membrane vesicles, Z. mays roots)", "settings": "Zea mays root; cited from earlier work"}, "AtMRP2": {"target": "T2, AtMRP2 (Arabidopsis thaliana, UniProt Q42093)", "T2 construct": "S. cerevisiae DTY168 (ycf1 null) vacuolar-enriched membrane vesicles", "T2 sequence (Q42093 whole entry)": "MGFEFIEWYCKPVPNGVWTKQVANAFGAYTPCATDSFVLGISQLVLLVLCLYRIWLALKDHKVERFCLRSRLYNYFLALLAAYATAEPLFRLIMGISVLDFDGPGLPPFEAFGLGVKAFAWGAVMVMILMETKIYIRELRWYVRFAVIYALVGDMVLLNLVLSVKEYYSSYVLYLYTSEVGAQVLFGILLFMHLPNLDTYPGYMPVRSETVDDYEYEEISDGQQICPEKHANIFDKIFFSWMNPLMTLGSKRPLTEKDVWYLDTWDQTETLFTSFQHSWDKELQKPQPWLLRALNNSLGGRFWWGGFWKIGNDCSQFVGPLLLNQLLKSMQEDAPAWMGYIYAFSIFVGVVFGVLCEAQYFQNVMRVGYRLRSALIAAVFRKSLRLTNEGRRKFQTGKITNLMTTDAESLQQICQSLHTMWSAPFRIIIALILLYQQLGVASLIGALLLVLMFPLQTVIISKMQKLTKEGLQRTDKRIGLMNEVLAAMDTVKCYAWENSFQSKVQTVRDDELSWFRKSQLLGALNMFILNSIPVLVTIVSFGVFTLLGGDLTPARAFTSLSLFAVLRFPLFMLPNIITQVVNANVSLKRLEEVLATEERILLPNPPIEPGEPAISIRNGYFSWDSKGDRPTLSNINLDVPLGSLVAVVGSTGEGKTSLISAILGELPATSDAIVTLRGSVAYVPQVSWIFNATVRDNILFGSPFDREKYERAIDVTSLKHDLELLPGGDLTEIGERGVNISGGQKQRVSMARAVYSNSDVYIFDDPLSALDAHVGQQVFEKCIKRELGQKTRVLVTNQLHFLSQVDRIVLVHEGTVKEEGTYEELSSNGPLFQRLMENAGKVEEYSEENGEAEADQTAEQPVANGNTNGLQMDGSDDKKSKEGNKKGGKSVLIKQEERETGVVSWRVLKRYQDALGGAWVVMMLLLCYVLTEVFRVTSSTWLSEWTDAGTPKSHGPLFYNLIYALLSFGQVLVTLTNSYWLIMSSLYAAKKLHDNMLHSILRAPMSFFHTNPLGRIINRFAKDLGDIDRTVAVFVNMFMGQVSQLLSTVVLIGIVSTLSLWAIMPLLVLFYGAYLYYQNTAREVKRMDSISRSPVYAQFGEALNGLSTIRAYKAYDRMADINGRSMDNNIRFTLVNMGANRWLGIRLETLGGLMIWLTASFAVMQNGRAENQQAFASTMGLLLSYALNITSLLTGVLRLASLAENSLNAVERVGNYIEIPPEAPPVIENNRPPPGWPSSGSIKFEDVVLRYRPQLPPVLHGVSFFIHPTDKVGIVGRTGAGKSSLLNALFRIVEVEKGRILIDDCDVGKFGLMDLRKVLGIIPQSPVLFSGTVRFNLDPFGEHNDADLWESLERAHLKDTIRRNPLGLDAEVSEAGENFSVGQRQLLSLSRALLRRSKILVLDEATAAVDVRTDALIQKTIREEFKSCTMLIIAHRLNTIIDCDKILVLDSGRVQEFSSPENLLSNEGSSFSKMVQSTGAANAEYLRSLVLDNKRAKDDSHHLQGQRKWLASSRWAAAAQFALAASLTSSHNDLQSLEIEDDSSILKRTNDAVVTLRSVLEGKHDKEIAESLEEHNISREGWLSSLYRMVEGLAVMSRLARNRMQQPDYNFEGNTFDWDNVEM", "assay": "AtMRP2-dependent uptake by membrane vesicles from pYES3-AtMRP2-transformed DTY168 cells", "assay_type": "biochemical", "how_it_was_run": "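Vacuolar membrane-enriched vesicles from DTY168 yeast expressing AtMRP2 took up 61.3 μM [3H]DNP-GS for 10 min; glucose (200 mM) plus hexokinase (50 units/ml) was then added to deplete ATP, while controls received nothing. Uptake was stopped with ice-cold sorbitol/Tris-Mes pH 8.0 and filtered, with filter radioactivity counted by scintillation. Nonenergized uptake was measured without ATP.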"}, "[6]": {"settings": "read-out: I50 for uptake of IAA-GS"}}, "note": "Where two headings read alike, the source gives them in different places.", "data": [{"smiles": "N[C@@H](CCC(=O)N[C@@H](CSc1ccc([N+](=O)[O-])cc1[N+](=O)[O-])C(=O)NCC(=O)O)C(=O)O", "note": "[DNP-GS, S-(2,4-dinitrophenyl)glutathione]", "values": [{"measurement": "Ki", "setting": "[1]", "value": "11.3 ± 2.1", "unit": "µM"}, {"measurement": "Km", "setting": "[2]", "value": "81.3 ± 41.8", "unit": "µM"}, {"measurement": "IC50", "setting": "[3]; V. radiata, read-out: I50 for uptake of C3G-GS", "value": 104, "unit": "µM"}, {"measurement": "IC50", "setting": "[3]; [6]", "value": 124, "unit": "µM"}, {"measurement": "inhibition of MgATP-dependent [3H]medicarpin-GS uptake", "setting": "[3]; vanadate 10 μM, DNP-GS 100 μM, gramicidin D", "value": "more than 85%"}, {"measurement": "IC50", "setting": "[4]; read-out: I50 for uptake of ABA-GS", "value": 232, "unit": "µM"}, {"measurement": "IC50", "setting": "[4]; read-out: I50 for uptake of C3G-GS", "value": 112, "unit": "µM"}, {"measurement": "IC50", "setting": "[4]; [6]", "value": 110, "unit": "µM"}, {"measurement": "rate of MgATP-dependent, uncoupler-insensitive DNP-GS uptake", "setting": "[5]", "value": 2.1, "unit": "nmol/mg/20 minutes"}, {"measurement": "Vmax for AtMRP2-dependent [3H]DNP-GS uptake in the presence of Bn-NCC-1", "setting": "AtMRP2; 15 μM Bn-NCC-1", "value": "18.3±1.6", "unit": "nmol/mg/10/min"}, {"measurement": "Vmax for AtMRP2-dependent uptake", "setting": "AtMRP2; MgATP-dependent, uncoupler-insensitive", "value": "16.3±3.1", "unit": "nmol/mg/10 min"}]}]}
